Test results as given in patent US8138153B2, “Potassium channel modulator peptide” (National Centre for Biological Sciences, priority 2004, dated 2012).

Tested on: K^+ currents (voltage dependent potassium channels) in DRG neurons
Format: cell-based, Wistar rats

FHGGSWYRFPWGY-NH2 [Mo1659] was tested, and the “Effect on fast transient K^+ current component” value was “not significantly affected”.
